Source: patent US20220296555A1, “ACYLATED ACTIVE AGENTS AND METHODS OF THEIR USE FOR THE TREATMENT OF METABOLIC DISORDERS AND NONALCOHOLIC FATTY LIVER DISEASE” (Flagship Pioneering Innovations V, Inc., priority 2019, published 2022)

How the values were obtained:
mouse myocyte = assay: Mouse myocyte lipolysis assay; assay type: cell-based; settings: differentiated myocytes
Method: Cells were obtained from ATCC and cultured in Dulbecco's Modified Eagle's medium (DMEM) containing 20% fetal bovine serum and 1% penicillin/streptomycin at 37° C. in an incubator with 5% CO2. Once the cells became confluent, they were seeded into a tissue culture treated 96 well plate. The next day, the medium containing DMEM with 2% equine serum was used to start differentiation. Table 2 lists the tested compounds including those that reduced the release of glycerol (+, ++, or +++). The lipolytic rate of muscle triglycerides is associated with metabolic dysfunction including insulin resistance and liver steatosis. Compounds that lower lipolysis of adipocytes may improve metabolic function including improving insulin sensitivity and reducing liver steatosis, thus improving outcomes in patients with diabetes mellitus (e.g., prediabetes or type II diabetes) obesity, and hyperlipidemia.

[1] = test system: differentiated mouse 3T3-L1 cells; assay: Mouse adipocyte lipolysis assay (Lipolysis Assay Kit, ZenBio); assay type: cell-based; settings: 24 hours post-treatment, 3T3-L1 adipocytes
Method: Mouse 3T3-L1 cells were obtained from ATCC and cultured in Dulbecco's Modified Eagle's medium (DMEM) containing 10% newborn calf serum (NCS) and penicillin/streptomycin(P/S) at 37° C. in an incubator with 5% CO2. Once the cells became confluent, they were seeded into a tissue culture treated 96 well plate. Then, differentiation was initiated by using DMEM containing 10% fetal bovine serum, P/S, IBMX, dexamethasone, and insulin. After 14 days of differentiation, cells were treated with compounds of interest. After 24 hours post-treatment, the cell viability was assessed using CellTiter-Glo Luminescent Cell Viability Assay from Promega, and lipolysis was determined using Lipolysis Assay Kit from ZenBio. […] Table 1 lists the compounds that reduced the release of free fatty acids and glycerol (+, ++, or +++). The lipolytic rate of white adipose tissue is associated with metabolic dysfunction including insulin resistance and liver steatosis. Compounds that lower lipolysis of adipocytes may improve metabolic function including improving insulin sensitivity and reducing liver steatosis, thus improving outcomes in subjects with diabetes mellitus (e.g., prediabetes or type II diabetes), obesity, and hyperlipidemia.

[2] = Assay 1. Stability in Simulated Gastric Fluid (SGF); assay type: in vitro ADME; settings: SGF pH 1.6 with pepsin, 1 μM, 37° C.
Method: Assay 1. Stability of conjugates in Simulated Gastric Fluid (SGF). This assay was used to assess the stability of an acylated cinnamic acid in a stomach.
Medium was prepared by dissolving 2 g of sodium chloride in 0.6 L in ultrapure water (MilliQ®, Millipore Sigma, Darmstadt, Germany). The pH was adjusted to 1.6 with 1N hydrochloric acid, and the volume was then adjusted to 1 L with purified water.
60 mg FaSSIF powder (Biorelevant™, London, UK) were dissolved in 500 mL buffer (above). Pepsin was added (0.1 mg/mL) (Millipore Sigma, Darmstadt, Germany), and the solution was stirred. The resulting SGF media were used fresh for each experiment.
A test compound was dissolved in DMSO stock to 1 mM. An aliquot of the DMSO stock solution was removed and diluted in the SGF Media in 15 mL falcon tubes to generate a total compound concentration of 1 μM. A 1 mL aliquot was immediately removed and diluted once with 1 volume of acetonitrile for T0 timepoint. The mixture was sealed and mixed at 37° C. in an incubator. Aliquots (1 mL) were removed at regular intervals and immediately quenched by the addition of 1 volume of acetonitrile. The resulting samples were analyzed by LC/MS to determine degradation rates in SGF.

[3] = Assay 3. In vitro Colonic Material Stability Assay; assay type: in vitro ADME; settings: colonic material slurry, anaerobic, 1 or 10 μM
Method: Assay 3. In vitro Colonic Material Stability Assay. This assay was used to assess the stability of an acylated cinnamic acid in a large intestine. All experiments were performed in an anaerobic chamber containing 90% nitrogen, 5% hydrogen and 5% carbon dioxide. Colonic material was resuspended as a slurry (15% w/v final concentration) in pre-reduced, anaerobically sterilized dilution blanks (Anaerobe Systems AS-908). The colonic material was then inoculated into 96 well plates containing YCFAC media (Anaerobe Systems AS-680) or other suitable media (6.7 μL slurry into 1 mL total media). A test compound was added to an individual well to reach a final analyte concentration of 1 or 10 μM, and the material was mixed by pipetting. Sample was removed after set timepoints (0, 120, 240, 480, 1440, 2880 minutes after initiation of the assay), quenched with acetonitrile containing internal standard, and analyzed by LC/MS.

[4] = Assay 2. Stability in Simulated Intestinal Fluid (SIF); assay type: in vitro ADME; settings: SIF pH 6.7 with pancreatin, 1 μM, 37° C.
Method: Assay 2. Stability of conjugates in Simulated Intestinal Fluid (SIF). This assay was used to assess the stability of an acylated cinnamic acid in a small intestine.
Phosphate buffer was prepared by dissolving 0.42 g of sodium hydroxide pellets and 3.95 g of monobasic sodium phosphate monohydrate and 6.19 g of sodium chloride in ultrapure water (MilliQ®, Millipore Sigma, Darmstadt, Germany). The pH was adjusted to 6.7 using aq. HCl and aq. NaOH, as necessary, and the solution was diluted with ultrapure water to produce 1 L of the pH 6.7 buffer.
112 mg FaSSIF powder (Biorelevant™, London, UK) was dissolved in 50 mL of the pH 6.7 buffer. 2 to 3 mL of the resulting solution were then added to 500 mg pancreatin (Millipore Sigma, Darmstadt, Germany). The resulting mixture was agitated by finger tapping the vessel containing the mixture until milky suspension formed. At this time, the remainder of the 50 mL FaSSiF/pH 6.7 buffer solution was added. The resulting suspension was flipped upside down 10 times to produce SIF, which was used fresh.
A test compound was dissolved in DMSO stock to 1 mM. An aliquot of the DMSO stock solution was removed and diluted in the SIF media in 15 mL falcon tubes to produce a mixture with a tested compound concentration of 1 μM. […] The resulting samples were analyzed by LC/MS to determine degradation rates

C57BL/6 mice = assay: In vivo evaluation in mice fed a high-fat diet (84-day study); parameters: species or system mouse
Method: Animals were allowed free access to food and drinking water for the entire study. Animals were weighed on a regular basis, and food and drinking water consumption monitored. Plasma and stool samples were collected at the beginning of the study and 42 days into the study. Additional blood was drawn from fasted mice 58 days into the study. Insulin tolerance tests were performed 72 or 73 days into the study. Following an approximate 4 h fast, 0.5 Units/kg insulin was administered intraperitoneally. Blood was collected pre-insulin challenge (t=0) and at t=15, 30, 60, 90, and 120 min following insulin challenge. Oral glucose tolerance tests were performed 79 or 80 days into the study. Following an approximate 4 h fast, 2 g/kg glucose was administered by oral gavage. Blood was collected pre-insulin challenge (t=0) and at t=15, 30, 60, 90, and 120 min following glucose challenge. At the end of the study, body weight, food consumption, blood glucose, serum ALT levels, serum AST levels, serum cholesterol (total cholesterol. HDL, and LDL levels), serum triglycerides levels, liver triglyceride levels, liver cholesterol levels, liver weight, subcutaneous fat pad weight, and epididymal fat pad weight were measured in all mice.

CC(=O)O [Acetic acid]
Free glycerol % DMSO (mouse myocyte; 1 mM): = (90% >< 100%: =)
Free glycerol % DMSO (mouse myocyte; 3 mM): = (90% >< 100%: =)
Lipolysis Free Fatty Acids % DMSO ([1]; 1 mM): ++ (50 >≤ 70%: ++)
Lipolysis Glycerol % change ([1]; 1 mM): + (70% >≤90%: +)
Lipolysis Free Fatty Acids % DMSO ([1]; 3 mM): ++ (50 >≤ 70%: ++)
Lipolysis Glycerol % change ([1]; 3 mM): + (70% >≤90%: +)

CCCC(=O)O [Butyric acid]
Free glycerol % DMSO (mouse myocyte; 3 mM): +++ (50%<: +++)
Lipolysis Free Fatty Acids % DMSO ([1]; 3 mM): ++ (50 >≤ 70%: ++)
Lipolysis Glycerol % change ([1]; 3 mM): ++ (50 >≤ 70%: ++)

O=C(O)/C=C/c1ccc(O)c(O)c1 [Caffeic acid]
Free glycerol % DMSO (mouse myocyte; 100 μM): +++ (50%<: +++)
Lipolysis Free Fatty Acids % DMSO ([1]; 100 μM): +++ (50%≤: +++)
Lipolysis Glycerol % change ([1]; 100 μM): +++ (50%≤: +++)

CCC(=O)O [Propionic acid]
Free glycerol % DMSO (mouse myocyte; 3 mM): ++ (50 >< 70%: ++)
Lipolysis Free Fatty Acids % DMSO ([1]; 3 mM): +++ (50%≤: +++)
Lipolysis Glycerol % change ([1]; 3 mM): ++ (50 >≤ 70%: ++)

CC(=O)Oc1ccc(/C=C/C(=O)O)cc1OC(C)=O [compound 3, diacetyl caffeic acid]
Assay 1 (SGF) (% Remaining @ 1 hour) [2]: C (>75% of the tested compound remaining)
Assay 3 (% Remaining at 24 h) [3]: A (<25% of the tested compound remaining)
Assay 2 (SIF) (% @ Remaining 4 hours) [4]: A (<25% of the tested compound remaining)

CC(=O)O[C@@H]1OC[C@@H](OC(C)=O)[C@H](OC(C)=O)[C@H]1OC(C)=O [compound 4]
metabolic markers (e.g., glucose tolerance, insulin tolerance, cholesterol levels) (C57BL/6 mice; mice fed high-fat diet + test article): improve metabolic markers
weight loss (C57BL/6 mice; mice fed high-fat diet, over the study): induce weight loss
